Test results reported in publication PMC3829888, “A Novel Quantitative Kinase Assay Using Bacterial Surface Display and Flow Cytometry” (PLoS ONE, 2013).
Values belong to the compound of their own block, whether it stands above or below them. Residues, ends and D or L forms follow the SMILES beside them.

Legend:
[1] = system: Abl kinase; experiment: Validation of BacKin assay: fluorescence of kinase-treated displaying cells by flow cytometry; type: biochemical, Human; settings: after 30 min incubation with Abl kinase; 585/42 nm
[2] = system: Abl kinase; settings: in words
[3] = biological target: T1, Abl TK (Homo sapiens, UniProt P00519); experiment: BacKin assay, inhibition and substrate competition (surface-displayed abltide phosphorylation, flow cytometry); type: biochemical; settings: for IC50: 0.5 U/mL Abl kinase, 30 min at 37°C, flow cytometry, biotin-anti-PY/SAPE, average of three independent experiments±SD
T1 construct: purchased Merck Millipore
T1 sequence (P00519 whole entry): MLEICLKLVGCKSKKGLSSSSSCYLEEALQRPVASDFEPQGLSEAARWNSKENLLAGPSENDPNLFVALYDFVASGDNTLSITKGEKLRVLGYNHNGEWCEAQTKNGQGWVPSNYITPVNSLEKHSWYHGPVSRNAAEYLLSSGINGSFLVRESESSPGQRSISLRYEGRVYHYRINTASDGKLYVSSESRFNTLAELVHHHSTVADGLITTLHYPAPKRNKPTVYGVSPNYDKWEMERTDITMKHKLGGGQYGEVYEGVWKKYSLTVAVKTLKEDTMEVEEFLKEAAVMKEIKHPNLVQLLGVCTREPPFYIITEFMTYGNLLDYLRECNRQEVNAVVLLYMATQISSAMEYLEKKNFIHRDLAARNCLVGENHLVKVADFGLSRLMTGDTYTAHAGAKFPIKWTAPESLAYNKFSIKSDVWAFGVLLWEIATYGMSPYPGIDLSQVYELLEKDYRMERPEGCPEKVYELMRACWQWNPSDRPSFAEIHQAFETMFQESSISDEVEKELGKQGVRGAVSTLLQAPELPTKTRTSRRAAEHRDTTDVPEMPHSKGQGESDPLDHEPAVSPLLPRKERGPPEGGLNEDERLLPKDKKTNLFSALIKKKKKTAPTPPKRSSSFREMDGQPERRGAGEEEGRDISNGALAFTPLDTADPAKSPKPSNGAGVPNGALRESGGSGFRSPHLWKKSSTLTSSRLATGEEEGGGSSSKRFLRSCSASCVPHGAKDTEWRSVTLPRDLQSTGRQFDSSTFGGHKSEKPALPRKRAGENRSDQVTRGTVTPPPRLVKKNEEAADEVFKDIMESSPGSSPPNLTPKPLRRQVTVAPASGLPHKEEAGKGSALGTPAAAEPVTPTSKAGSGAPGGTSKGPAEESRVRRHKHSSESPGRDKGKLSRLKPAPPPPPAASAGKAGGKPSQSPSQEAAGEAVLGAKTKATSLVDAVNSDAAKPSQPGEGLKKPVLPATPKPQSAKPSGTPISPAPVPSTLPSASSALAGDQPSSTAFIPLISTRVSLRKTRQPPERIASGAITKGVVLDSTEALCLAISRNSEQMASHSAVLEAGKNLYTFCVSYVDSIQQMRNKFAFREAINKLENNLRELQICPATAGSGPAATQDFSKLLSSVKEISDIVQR

[4] = one U = 1 nmol of phosphate incorporated into 50 µM abltide per minute at 30°C, 100 µM ATP; ref Merck Millipore; cited from earlier work
Procedure: The kinase activity of Bcr-Abl TK is located in the Abl domain (Figure 1). […] The activity of Abl TK was first examined using LC-MS. The time-course for phosphorylation of 60 µM of soluble abltide was followed with 0.5 U/mL Abl TK in kinase buffer (50 mM Tris-HCl, 10 mM MgCl2, 0.1 mM EDTA, 2 mM dithiothreitol and 0.01% (v/v) Brij 35, NEBuffer, New England BioLa ...

Compound: abltide-displaying cells: E. coli MC1061 displaying KKGEAIYAAPFA fused via spacer GGQSGQ to the N-terminus of the eCPX display scaffold
percentage of fluorescent cells [1]: ~96%

Compound: EAIFAAPYAKKK [[Y4F,F8Y], abltide analogue in which the Tyr4 and Phe8 residues are swapped; negative control]
phosphorylation by Abl kinase [2]: is not phosphorylated by Abl kinase | inhibition of kinase activity / competition ([3]; in words, peptide concentrations ranging from 64 to 0.25 µM, 0.5 U/mL kinase, 30 min, analogue tested with 500 µM ATP, average of two replicates): did not inhibit kinase activity in the concentration range tested

Compound: Abl TK: Human active Abl (121 kDa, 1067 U/mg, Merck Millipore)
specific activity [4]: 1067 U/mg

IC50 ([3]; 50 µM ATP): 21.5 ± 2.64 µM | IC50 ([3]; 500 µM ATP): 37.5 ± 3.95 µM
Compound: CC[C@H](C)[C@H](NC(=O)[C@H](C)NC(=O)[C@@H](N)CCC(=O)O)C(=O)N[C@@H](Cc1ccc(O)cc1)C(=O)N[C@@H](C)C(=O)N[C@@H](C)C(=O)N1CCC[C@H]1C(=O)N[C@@H](Cc1ccccc1)C(=O)N[C@@H](C)C(=O)N[C@@H](CCCCN)C(=O)N[C@@H](CCCCN)C(=O)N[C@@H](CCCCN)C(=O)O [abltide] (H-EAIYAAPFAKKK-OH)
